Reference: patent publication US10968196B2, “Substituted β-lapachones for treating cancer” (University of Pittsburgh—Of the Commonwealth System of …, priority 2015, dated 2021)
Where “and” joins values, the source holds several entries; their conditions need not be identical. Identical values can stand only once.

Columns and labels:
A549 cells [1] = test: Vacuole formation by phase contrast microscopy; assay type: cell-based; settings: A549, 6 μM, 20 h, phase contrast microscopy (FIG. 3D)
Method: (§1) (3A) A549 non-small cell lung cancer cells were treated with XJB-OMe, 3-hydroxy-β-lapachone (14), or XJB-lapachone (18) at indicated concentrations for 24 h. Cell viability was determined by a CellTiter-Blue assay. Data represents the mean±SEM. (3B) PEO1 ovarian cancer cells, MDA-MB-231 breast cancer cells, and 983B melanoma cells were treated with XJB-lapachone (18) at indicated concentrations for 24 h. Cell viability was determined by a CellTiter-Blue assay. Data represents the mean±SEM. (3C) Equal numbers of A549 and IMR90 lung fibroblast cells were treated with 10 μM XJB-lapachone (18) for 4 h. XJB-lapachone was then washed away and cells were incubated in drug free media for 3 days. Cell viability was determined by a CellTiter-Blue assay. (3D) A549 cells were treated with XJB-OMe, 3-hydroxy-β-lapachone (14), or XJB-lapachone (18) at 6 μM concentrations for 20 h. The formation of vacuoles was examined by phase contrast microscopy. Representative images are shown. (3E) A549 cells were treated as described above. Apoptotic and necrotic cell death were determined by Annexin V and PI staining. Representative images are shown.
Microscopy: For vacuole imaging, A549 cells were plated in 12-well plate, treated with compounds and the phase contrast images were captured using a Nikon Eclipse TS100 inverted microscope. […]

A549 cells [2] = test: Oxygen consumption rate, Seahorse extracellular flux analysis; assay type: cell-based; settings: A549, 6 μM, 16 h, Seahorse (FIG. 4B)
Method: (§2) (4A) A549 cells were treated with XJB-OMe, 3-hydroxy-β-lapachone (14), or XJB-lapachone (18) at 6 μM for 16 h. The generation of ROS was determined by staining cells with MitoSox and DCFHDA. The fluorescence intensity was measured by flow cytometry. Data represents the mean±S.D. of triplicates. (4B) A549 cells were treated as described in A, and the oxygen consumption rate was determined by a Seahorse extracellular flux analyzer. […] (4C) A549 cells were treated as described in A, and mitochondria morphology was examined by electron microscopy. Representative images are shown. (4D) A549 cells were treated as described above. The expression of the autophagy marker LC3 was examined by western blot. β-actin was used as a loading control. Representative images are shown.
Extracellular flux (XF) analysis: Oxygen consumption rate (OCR) was measured using a Seahorse XF96 Extracellular Flux Analyzer (Seahorse Bioscience, North Billerica, Mass.), as previously described (Qian W, et al., Alterations in bioenergetics due to changes in mitochondrial DNA copy number. Methods 2010 51:452-457). Briefly, A549 cells were plated in a 6-well plate and treated with compounds for 16 h. After treatment, cells were trypsinized, counted, and plated at 40,000 cells per well in a XF96 microplate using Cell-Tak cell adhesive. OCR measurements were then performed using a XF96 analyzer.

MDA-MB-231 rho0 cells = test: Celltiter-blue cell viability in rho0 cells; assay type: cell-based; settings: MDA-MB-231 rho0 cells (mtDNA depleted), increasing concentrations, 24 h (FIG. 8)
Method: MDA-MB-231 parental and rho0 cells (established by long-term culture of parental MDA-MB-231 cells in the presence of 50 ng/ml ethidium bromide) were treated with increasing concentrations of XJB-lapachone for 24 h. Cell viability was determined by Celltiter-blue.

983B melanoma cells = test: CellTiter-Blue cell viability assay, 24 h treatment; assay type: cell-based; settings: 983B cells, indicated concentrations, 24 h (FIG. 3B)
Method: as §1
(§3) Cell culture: A549 non-small cell lung cancer cells and MDA-MB-231 breast carcinoma cells were obtained from American Type Culture Collection (ATCC). Ovarian cancer cells PEO1 were kindly provided by Dr. Karyn J. Hansen (Magee-Womens Hospital of UPMC). 983B melanoma cells were kindly provided by Dr. Stergios J. Moschos (University of North Carolina). IMR90 normal lung fibroblast cells were kindly provided by Dr. Christopher Bakkenist (University of Pittsburgh Cancer Institute). Cells were cultured in either RPMI 1640 or DMEM media supplemented with 10% heat-inactivated fetal calf serum and 1% penicillin-streptomycin in 5% CO2 at 37° C.
(§4) Cell viability and apoptosis assays: Cell viability was determined using a CellTiter-Blue Cell Viability Assay (Promega, Madison, Wis.). The survival fractions were calculated after setting untreated control cells at 100%. An FITC Annexin V Apoptosis Detection Kit (BD PharMingen, San Diego, Calif.) was used to quantify apoptotic cells and necrotic cells, according to the manufacturer's instructions.
(§5) In order to investigate the cellular toxicity of 18 (XJB-lapachone), A549 nonsmall cell lung cancer cells were treated with various concentrations of XJB-lapachone for 24 h, and compared its effect with XJB-OMe (the mitochondrial targeting moiety) and unconjugated 3-hydroxy-β-lapachone (14). […] Furthermore, XJB-lapachone is also effective against other types of tumor cells, including PEO1 ovarian cancer cells, MDA-MB-231 breast cancer cells, and 983B melanoma cells (FIG. 3B). […] Tumor selectivity of β-lapachone, and whether the same is maintained after XJB conjugation, was examined. The cytotoxic effect of XJB-lapachone on A549 lung cancer and non-transformed human lung fibroblast cells IMR90 was determined by a cell growth/death assay.

[3] = system: A549 non-small cell lung cancer cells; test: as above; assay type: cell-based; settings: various concentrations, CellTiter-Blue (FIG. 3A)
Method: as §1, §3, §4, §5

[4] = system: MDA-MB-231 breast cancer cells; test: as above; assay type: cell-based; settings: MDA-MB-231 cells (NQO1 deficient), indicated concentrations, 24 h (FIG. 3B)
Method: as §1, §3, §4, §5

[5] = system: PEO1 ovarian cancer cells; test: as above; assay type: cell-based; settings: indicated concentrations, 24 h (FIG. 3B)
Method: as §1, §3, §4, §5

A549 lung cancer cells = test: Cell growth/death assay (4 h exposure, wash-out, 3 days drug free); assay type: cell-based; settings: A549, 10 μM for 4 h, washed, 3 days drug free media (FIG. 3C)
Method: as §1, with “The formation of vacuoles was examined by phase contrast microscopy. Representative images are shown. (3E) A549 cells were treated as described above.” left out, “Representative images are shown.” left out
as §4, with “instructions. […]” for “instructions.”

[6] = system: IMR90 lung fibroblast cells; test: as above; assay type: cell-based, human; settings: IMR90, 10 μM for 4 h, washed, 3 days drug free media (FIG. 3C)
Method: as §1, with “The formation of vacuoles was examined by phase contrast microscopy. Representative images are shown. (3E) A549 cells were treated as described above.” left out, “Representative images are shown.” left out
as §4, with “instructions. […]” for “instructions.”

A549 cells [7] = test: Annexin V and PI staining (apoptotic and necrotic cell death); assay type: cell-based; settings: A549, 6 μM, 20 h, compared to unconjugated 3-hydroxy-β-lapachone (FIG. 3E)
Method: as §1, with “The formation of vacuoles was examined by phase contrast microscopy. Representative images are shown. (3E) A549 cells were treated as described above.” left out, “Representative images are shown.” left out
as §4

A549 cells [8] = test: ROS generation by DCF-DA and MitoSox, flow cytometry; assay type: cell-based; settings: for ROS generation (DCF) / mitochondrial ROS generation (MitoSox): A549, 6 μM, 16 h, flow cytometry (FIG. 4A)
Method: as §2
(§6) Determination of ROS generation: To measure intracellular generation of ROS, cells were incubated with 5 μM DCF-DA (Sigma) for 20 min at 37° C. after drug exposure. To measure mitochondrial generated ROS, cells were incubated with 5 μM of MitoSox (Invitrogen) for 20 min at 37° C. After wash with PBS, cells were trypsinized and suspended in HBSS containing 1% BSA. The fluorescence intensity of DCF and MitoSox were analyzed using an Accuri C6 flow cytometer (BD Accuri Cytometers, Ann Arbor, Mich.).
(§7) A549 non-small cell lung cancer cells (high NQO1) and MDA-MB-231 triple negative breast cancer cells (NQO1 deficient) were treated as indicated in FIG. 6. Mitochondrial ROS generation was determined by MitoSox followed by flow cytometry, essentially as described above.

A549 cells [9] = test: Mitochondria morphology by transmission electron microscopy; assay type: cell-based; settings: A549, 6 μM, 16 h, electron microscopy (FIG. 4C)
Method: as §2
Microscopy: For vacuole imaging, A549 cells were plated in 12-well plate, treated with compounds and the phase contrast images were captured using a Nikon Eclipse TS100 inverted microscope. For transmission electron microscopy analysis, A549 cells cultured in 6-well plate were fixed with 2.5% glutaraldehyde (Sigma-Aldrich) in PBS for 1 h at room temperature, and post-fixed for 1 h at 4° C. in 1% OsO4 with 1% K3Fe(CN)6. After dehydration and embedding, ultrathin (70 nm) sections were cut and mounted onto copper grids. […]

LC3 = test: Western blot of autophagy marker LC3; assay type: cell-based; settings: A549, western blot (FIG. 4D)
Method: as §2
Western blot analysis: Western blot was performed. Primary antibody LC3 was obtained from Novus (Littleton, Colo.) and β-actin was purchased from Sigma-Aldrich (St. Louis, Mo.).

[10] = system: A549 non-small cell lung cancer cells; test: Colony forming capacity (crystal violet) 10 days after drug treatment; assay type: cell-based
Method: Drug efficacy was determined by colony forming capacity using crystal violet 10 days after drug treatment.
A549 non-small cell lung cancer cells were treated with XJB-lapachone alone or combination with cisplatin or etoposide for 4 h at concentrations indicated in FIG. 10. Drug efficacy was determined by colony forming capacity 10 days after drug treatment.
A549 cells were treated with XJB-lapachone for 4 h. XJB-lapachone was then washed away before IR exposure (gamma-irradiation with a Shepherd Mark I Model 68 [^137Cs] irradiator) at 0, 1, 2, 4, and 6 Gy (grays). The number of colonies was counted 10 days after IR exposure (FIG. 11).

[11] = system: MDA-MB-231 triple negative breast cancer cells (NQO1 deficient); test: Mitochondrial ROS generation by MitoSox, flow cytometry; assay type: cell-based
Method: as §6, §7
Mitochondrial ROS generation was determined by MitoSox followed by flow cytometry. Left-shift of peak indicates decrease of ROS and right-shift of peak indicates increase of ROS.

DNA damage signaling = test: Western blot of DNA damage signaling activation; assay type: cell-based; settings: A549, western blot after treatment (FIG. 9)
Method: Western blot was performed […] after treatment to examine the activation of DNA damage signaling. Antibodies used in the Western Blot were β-actin (AC-15) and ATM (MAT3-4G10/8) (from Sigma); Chk1 (2G1D5), phospho-Chk2 (Thr68) (C13C1), Chk2 (1C12) (from Cell Signaling Technology); phospho-Chk1 (Ser317) (from R&D systems); and phospho-ATM (S1981) (from Epitomics).

`CC1(C)OC2=C(CC1O)C(=O)C(=O)c1ccccc12` (stereo not drawn) [3-hydroxy-β-lapachone, reference compound] was tested, and the “vacuolization (formation of vacuoles)” value (A549 cells [1]) was “not detected”, the “inhibition of mitochondrial respiration (oxygen consumption) by oligomycin after treatment” value (A549 cells [2]) was “oligomycin was efficient in inhibiting the mitochondrial respiration” and the “induction of cell death in rho0 cells (cell viability)” value (MDA-MB-231 rho0 cells) was “not”.
With `CC(C)C[C@@H](/C=C/[C@H](Cc1ccccc1)C(=O)N1CCC[C@H]1C(=O)N[C@H](C(=O)N[C@@H](CCCNC(=O)OCc1ccccc1)C(=O)NCCC(=O)OC1CC2=C(OC1(C)C)c1ccccc1C(=O)C2=O)C(C)C)NC(=O)OC(C)(C)C` (stereo partly drawn) [XJB-lapachone, 2,2-Dimethyl-5,6-dioxo-3,4,5,6-tetrahydro-2H-benzo[h]chromen-3-yl 3-((S)-2-((S)-2-((S)-1-((2S,5S,E)-2-benzyl-5-((tert-butoxycarbonyl)amino)-7-methyloct-3-enoyl)pyrrolidine-2-carboxamido)-3-methylbutanamido)-5-(((benzyloxy)carbonyl)amino)pentanamido) propanoate] the cell viability (983B melanoma cells) was “effective”, the “cell viability / cytotoxic effect” value ([3]; listed as XJB-Lapachone) was “superior compared to unconjugated β-lapachone” and the “cell viability / cytotoxic effect” value ([3]; listed as XJBLapachone) was “reduced cell viability in a dose dependent manner”. For the same compound, the cell viability [4] was “effective”, the cell viability [5] was “effective” and the “cell viability after four-hour exposure” value (A549 lung cancer cells) was “significantly reduced the viability”. For the same compound, the “cell viability after four-hour exposure (toxic effect on non-transformed cells)” value [6] was “toxic effect was less prominent”, the “vacuolization (formation of vacuoles)” value (A549 cells [1]) was “extensive vacuolization” and the “annexin V positive cells (apoptosis)” value (A549 cells [7]) was “more annexin V positive cells were induced”. For the same compound, the “mitochondrial ROS generation (MitoSox), dose and time dependence” value (A549 cells [8]; A549 (high NQO1) (FIG. 6)) was “Induces Mitochondrial ROS Generation in a Dose and Time Dependent Manner”, the “ROS generation (DCF)” value (A549 cells [8]) was “dramatic increase of ROS generation” and the “mitochondrial ROS generation (MitoSox)” value (A549 cells [8]) was “dramatic increase of ROS generation”. For the same compound, the “ROS generation (DCF)” value (A549 cells [8]; listed as 18) was “stronger than unconjugated 3-hydroxy-β-lapachone”, the “mitochondrial ROS generation (MitoSox)” value (A549 cells [8]; listed as 18) was “stronger than unconjugated 3-hydroxy-β-lapachone” and the “inhibition of mitochondrial respiration (oxygen consumption) by oligomycin after treatment” value (A549 cells [2]) was “can no longer be inhibited by oligomycin”. The mitochondria morphology (A549 cells [9]) was “onion skin-like structures of mitochondria were observed”, the “increase in LC3-II immunoblot signal” value (LC3) was “increase in an LC3-II immunoblot signal was observed” and the “colony forming capacity in combination with cisplatin or etoposide” value ([10]; A549, 4 h, alone or combination with cisplatin or etoposide, 10 days (FIG. 10)) was “enhances the effect of DNA-damaging anticancer agents”. The “treatment efficacy by colony forming capacity” value ([10]; A549, 4 h treatment, colonies 10 days after (FIG. 5)) was “Higher Treatment Efficacy as Compared to Unconjugated Beta-Lapachone”, the “number of colonies in combination with ionizing radiation” value ([10]; A549, 4 h treatment, washed, IR 0-6 Gy, colonies counted 10 days after (FIG. 11)) was “Synergistic Effect” and the “mitochondrial ROS generation (MitoSox), dose and time dependence” value ([11]; MDA-MB-231 (NQO1 deficient) (FIG. 6)) was “Induces Mitochondrial ROS Generation in a Dose and Time Dependent Manner”. The “mitochondrial ROS levels at high concentration” value ([11]; MDA-MB-231, 2 h, high concentration (FIG. 7)) was “Increases Mitochondrial ROS”, the “mitochondrial ROS levels at low concentration” value ([11]; MDA-MB-231, 2 h, low concentration (FIG. 7)) was “Reduces Mitochondrial ROS Levels” and the “concentration at which ROS decreased” value ([11]; as described in the examples) was no more than 1 µM. For the same compound, the “concentration that increases ROS production in the mitochondria” value ([11]; as described in the examples) was > 1.0 µM and > 2.0 µM, the “induction of cell death in rho0 cells (cell viability)” value (MDA-MB-231 rho0 cells) was “effective in inducing cell death in rho0 cells” and the “activation of DNA damage signaling (DNA damage)” value (DNA damage signaling) was “induces DNA damage”.
